Values quoted from earlier work, collected in US20240252671A1, “NEODEGRADER-ANTI-CD33 ANTIBODY CONJUGATES” (priority 2021, published 2024).

Tests used:
[1] = test system: Kasumi-6; conditions: stated as known; cited from earlier work
[2] = test system: AML-193; conditions: stated as known; cited from earlier work

In the case of “Mylotarg: a CD33-targeting ADC clinically approved for the treatment of AML”, the “sensitivity of cell line to Mylotarg” value [1] is listed as “insensitive” and the “sensitivity of cell line to Mylotarg” value [2] is listed as “insensitive”.
